Test results as given in patent US20260102472A1, “SEMAGLUTIDE IN MEDICAL THERAPY” (Novo Nordisk A/S, priority 2023, published 2026).

Assays:
[1] = system: hospitalisation for heart failure; conditions: 0.5 mg or 1.0 mg subcutaneous once weekly, compared to placebo; cited from earlier work
[2] = system: human subjects with obesity-related heart failure with preserved ejection fraction; assay: Randomised, double-blind, placebo-controlled clinical trial of semaglutide in obesity-related HFpEF (Example 1); format: in vivo; conditions: for Time to first HF event from randomisation leading to either hospitalisation or an urgent visit, Hazard ratio: Semaglutide 2.4 mg/placebo; for Observed KCCQ-CSS mean change from baseline: 2.4 mg once weekly subcutaneously
Source text: The Kansas City Cardiomyopathy Questionnaire (KCCQ) is a disease-specific health status instrument composed of 23 items that quantify the domains of physical limitation, symptoms, self-efficacy, social limitation, and health-related quality of life limitation from heart failure (available via cvoutcomes.org). The questions of the KCCQ are as published in the appendix of Green et al., JACC 2000; 35 (5): 1245-55:
The Kansas City Cardiomyopathy Questionnaire clinical summary score (KCCQ-CSS) is used for interpretation of the KCCQ and scores range from 0 to 100 where higher scores indicate better function. KCCQ-CSS is calculated as the mean of the available summary scores Physical Limitation Score and Total Symptom Score from the KCCQ. […] “Total Symptom Score” is calculated as the mean of the available summary scores Symptom Frequency Score and Symptom Burden Score. “Symptom Frequency Score” is calculated, if answer to at least two of Questions 3, 5, 7 and 9 are not missing, as 100*(mean of S3, S5, S7 and S9 answered), where S3=[(Question 3)−1]/4, S5=[(Question 5)−1]/6, S7=[(Question 7)−1]/6, and S9=[(Question 9)−1]/4; answers to Question 3 are scored as follows: Every morning=1, 3 or more times a week but not every day=2, 1-2 times a week=3, Less than once a week=4, Never over the past 2 weeks=5; answers to Questions 5 and 7 are scored as follows: All of the time=1, Several times a day=2, At least once a day=3, 3 or more times a week but not every day=4, 1-2 times a week=5, Less than once a week=6, or Never over the past 2 weeks=7; and answers to Question 9 are scored as follows: Every night=1, 3 or more times a week but not every day=2, 1-2 times a week=3, Less than once a week=4, or Never over the past 2 weeks=5. “Symptom Burden Score” is calculated, if answer to at least one of Questions 4, 6 and 8 is not missing, as 100*[(mean of Questions 4, 6 and 8 answered)−1]/4 where answers are scored as follows: Extremely bothersome=1, Quite a bit bothersome=2, Moderately bothersome=3, Slightly bothersome=4, Not at all bothersome=5, or I've had no swelling/fatigue/shortness of breath=5. The term “mean of questions answered” as used herein refers to that for a scale with n in questions where the subject must answer m to score the scale, but the subject answers only n-i, where n-i>=m, then the mean of those questions is calculated as (sum of answers to those n-i questions)/(n-i).
The six minute walk test (6MWT) is a determination of the distance a subject is able to walk over a period of six minutes where the subject traverses, at its own pace and resting as needed, back and forth along a marked walkway of 20 meters with the goal of walking as far as possible without running. The distance obtained from 6MWT is referred to as the six minute walk distance (6MWD). The 6MWT is a direct and timed measure of walking ability, which is technically simple and reproducible.
Heart failure exists in different degrees of severity. The most commonly used classification system of heart failure is the New York Heart Association Functional Classification (also referred to as “NYHA”). NYHA categorises subjects in one of four classes I-IV (Table A), based on their degree of limitation during physical activity, and optionally an additional subgroup A-D based on objective assessments, for further details see The Criteria Committee of the New York Heart Association. Nomenclature and Criteria for Diagnosis of Diseases of the Heart and Great Vessels. 9th ed. Boston, Mass: Little, Brown & Co; 1994:253-256.
A randomised, double-blind, international multicentre, placebo-controlled clinical trial with semaglutide was carried out with 529 human subjects with obesity-related heart failure with preserved ejection fraction. Key inclusion criteria were body mass index (BMI) of at least 30 kg/m^2, NYHA Class II-IV, and LVEF of at least 45% at time of screening for the clinical trial. […]

[3] = pair-wise comparisons vs. placebo, 2.4 mg
[4] = week 52, 2.4 mg once weekly vs. placebo
[5] = week 52, 2.4 mg once weekly vs. placebo, listed as semaglutide
[6] = week 52, 2.4 mg once weekly, ANCOVA estimate

**Q.** For “N-epsilon26-[2-(2-{2-[2-(2-{2-[(S)-4-Carboxy-4-(17-carboxyheptadecanoyl-amino) butyrylamino]ethoxy}ethoxy) acetylamino]ethoxy}ethoxy) acetyl] [Aib8,Arg34] GLP-1-(7-37) [Semaglutide]”, which “Hospitalisation for heart failure, hazard ratio (95% confidence interval)” value [1] is on record?
**A.** 1.11 (0.77−1.61)

**Q.** And the Inflammation ([2]; HFpEF and obesity, no data given)?
**A.** reduced inflammation

**Q.** And the “Time to first HF event from randomisation leading to either hospitalisation or an urgent visit, Hazard ratio” value [2]?
**A.** 0.08

**Q.** What about the “Time to first HF event from randomisation leading to either hospitalisation or an urgent visit, Hazard ratio” value ([2]; listed as semaglutide) of the same substance?
**A.** risk of experiencing a heart failure event was less

**Q.** And the “Patients improved or with no change in NYHA class compared with placebo” value ([2]; baseline to 52 weeks)?
**A.** more patients treated with semaglutide improved or observed no change in NYHA class

**Q.** What about the “More wins on semaglutide as compared to placebo” value ([2]; hierarchical composite endpoint) of the same substance?
**A.** 72%

**Q.** And the “Hierarchical composite endpoint, Loss: All-cause death” value [2, 3]?
**A.** 1.1%

**Q.** What about the “Hierarchical composite endpoint, Loss: Change in 6MWD ≥30 meters difference” value [2, 3] of the same substance?
**A.** 3.7%

**Q.** What about the “Hierarchical composite endpoint, Loss: Change in KCCQ-CSS ≥5 points difference” value [2, 3] of the same substance?
**A.** 7.0%

**Q.** And the “Hierarchical composite endpoint, Loss: Change in KCCQ-CSS ≥10 points difference” value [2, 3]?
**A.** 5.6%

**Q.** And the “Hierarchical composite endpoint, Loss: Change in KCCQ-CSS ≥15 points difference” value [2, 3]?
**A.** 17.5%

**Q.** What about the “Hierarchical composite endpoint, Loss: Number of HF events” value [2, 3] of the same substance?
**A.** 0.0%

**Q.** And the “Hierarchical composite endpoint, Loss: Time-to-first HF event” value [2, 3]?
**A.** 0.0%

**Q.** And the “Hierarchical composite endpoint, Loss: Total” value [2, 3]?
**A.** 34.9%

**Q.** What about the “Hierarchical composite endpoint, Proportion of ties” value [2, 3] of the same substance?
**A.** Proportion of ties: 5.1%.

**Q.** And the “Hierarchical composite endpoint, Wins: All-cause death” value [2, 3]?
**A.** 1.5%

**Q.** And the “Hierarchical composite endpoint, Wins: Change in 6MWD ≥30 meters difference” value [2, 3]?
**A.** 6.3%

**Q.** What about the “Hierarchical composite endpoint, Wins: Change in KCCQ-CSS ≥5 points difference” value [2, 3] of the same substance?
**A.** 8.2%

**Q.** And the “Hierarchical composite endpoint, Wins: Change in KCCQ-CSS ≥10 points difference” value [2, 3]?
**A.** 7.2%

**Q.** What about the “Hierarchical composite endpoint, Wins: Change in KCCQ-CSS ≥15 points difference” value [2, 3] of the same substance?
**A.** 33.7%

**Q.** And the “Hierarchical composite endpoint, Wins: Number of HF events” value [2, 3]?
**A.** 3.3%

**Q.** And the “Hierarchical composite endpoint, Wins: Time-to-first HF event” value [2, 3]?
**A.** 0.0%

**Q.** And the “Hierarchical composite endpoint, Wins: Total” value [2, 3]?
**A.** 60.1%

**Q.** What about the “Observed body weight (%) mean change from baseline” value ([2]; week 0, 2.4 mg once weekly) of the same substance?
**A.** 0%

**Q.** And the “Observed six minutes walk distance mean change from baseline” value ([2]; week 0, 2.4 mg once weekly)?
**A.** 0 meters

**Q.** What about the “Observed KCCQ-CSS mean change from baseline” value (“Observed KCCQ-CSS mean change” below) ([2]; week 0) of the same substance?
**A.** 0

**Q.** What about the “Observed body weight (%) mean change from baseline” value ([2]; week 4, dose escalation to 2.4 mg once weekly) of the same substance?
**A.** −2.1%

**Q.** What about the “Observed body weight (%) mean change from baseline” value ([2]; week 8, dose escalation to 2.4 mg once weekly) of the same substance?
**A.** −3.2%

**Q.** What about the “Observed body weight (%) mean change from baseline” value ([2]; week 12, dose escalation to 2.4 mg once weekly) of the same substance?
**A.** −5.0%

**Q.** What about the “Observed body weight (%) mean change from baseline” value ([2]; week 16, dose escalation to 2.4 mg once weekly) of the same substance?
**A.** −6.6%

**Q.** And the “Observed body weight (%) mean change from baseline” value ([2]; week 20, 2.4 mg once weekly)?
**A.** −7.8%

**Q.** And the “Observed six minutes walk distance mean change from baseline” value ([2]; week 20, 2.4 mg once weekly)?
**A.** 14.3 meters

**Q.** What about the “Observed KCCQ-CSS mean change” value ([2]; week 20) of the same substance?
**A.** 11.0

**Q.** And the “Observed body weight (%) mean change from baseline” value ([2]; week 28, 2.4 mg once weekly)?
**A.** −10.2%

**Q.** What about the “Observed body weight (%) mean change from baseline” value ([2]; week 36, 2.4 mg once weekly) of the same substance?
**A.** −12.1%

**Q.** What about the “Observed KCCQ-CSS mean change” value ([2]; week 36) of the same substance?
**A.** 15.0

**Q.** And the “Observed body weight (%) mean change from baseline” value ([2]; week 44, 2.4 mg once weekly)?
**A.** −12.9%

**Q.** What about the “NYHA class from baseline to week 52: Improvement” value ([2]; week 52, 2.4 mg once weekly) of the same substance?
**A.** 36.4%

**Q.** What about the “NYHA class from baseline to week 52: No change” value ([2]; week 52, 2.4 mg once weekly) of the same substance?
**A.** 61.7%

**Q.** What about the “NYHA class from baseline to week 52: Worsening” value ([2]; week 52, 2.4 mg once weekly) of the same substance?
**A.** 2.0%

**Q.** What about the “Observed body weight (%) mean change from baseline” value ([2]; week 52, 2.4 mg once weekly) of the same substance?
**A.** −13.9%

**Q.** What about the “Observed proportion improving ≥5 points from baseline in KCCQ-CSS” value ([2]; week 52, 2.4 mg once weekly) of the same substance?
**A.** 75%

**Q.** What about the “Observed proportion improving ≥10 points from baseline in KCCQ-CSS” value ([2]; week 52, 2.4 mg once weekly) of the same substance?
**A.** 63%

**Q.** What about the “Observed six minutes walk distance mean change from baseline” value ([2]; week 52, 2.4 mg once weekly) of the same substance?
**A.** 23.5 meters

**Q.** What about the “Observed KCCQ-CSS mean change” value ([2]; week 52) of the same substance?
**A.** 16.8

**Q.** What about the “Body weight (%) change from baseline to week 52, Treatment difference vs. placebo” value [2, 4] of the same substance?
**A.** −10.7%

**Q.** What about the “Improvement of ≥5 points in KCCQ-CSS, Treatment Odds ratio vs. placebo” value [2, 4] of the same substance?
**A.** 1.88

**Q.** And the “Improvement of ≥10 points in KCCQ-CSS, Treatment Odds ratio vs. placebo” value [2, 4]?
**A.** 2.10

**Q.** What about the “KCCQ-CSS change from baseline to week 52, Treatment difference vs. placebo” value [2, 4] of the same substance?
**A.** 7.8 score

**Q.** And the “Six minutes walk distance change from baseline to week 52, Treatment difference vs. placebo” value [2, 4]?
**A.** 20.3 meters

**Q.** What about the “Body weight (%) change from baseline to week 52, Treatment difference vs. placebo” value [2, 5] of the same substance?
**A.** significantly larger body weight loss

**Q.** What about the “KCCQ-CSS change from baseline to week 52, Treatment difference vs. placebo” value [2, 5] of the same substance?
**A.** significantly larger improvement in KCCQ-CSS

**Q.** What about the “Six minutes walk distance change from baseline to week 52, Treatment difference vs. placebo” value [2, 5] of the same substance?
**A.** significantly larger improvement in six minutes walk distance

**Q.** And the “Body weight (%) change from baseline to week 52, Estimate” value [2, 6]?
**A.** −13.3%

**Q.** What about the “KCCQ-CSS change from baseline to week 52, Estimate” value [2, 6] of the same substance?
**A.** 16.6 score

**Q.** What about the “Six minutes walk distance change from baseline to week 52, Estimate” value [2, 6] of the same substance?
**A.** 21.5 meters
